Records with an inconclusive call do not appear. Activity calls are given as the source filed them.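 How the source made its calls: active means compounds lowering the luciferase signal with a fitted half-maximal dose at most twice their top valid dose (cut at about 30 µM in these data); inconclusive means flat fits with moderate signal loss, or poor fits; inactive means the rest.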
System: Clone20 osteoblast Shn3 3'UTR firefly luciferase, 24 h
Assay: Shn3 3'UTR reporter inhibitors, dose response, cell-based, Clone20 osteoblasts, luminescence, dry powder, set 2 (AID 743417)

| SMILES | AC50 |
| --- | --- |
| Cc1ccnc(SCC(=O)Nc2sc3c(c2C#N)CCCC3)n1 | 0.955 µM |
| CCCCCCCSc1cc(OC)c(CCNC)cc1OC | 10.6 µM |
| COC(=O)/C=C/S(=O)(=O)c1ccc(NC(C)=O)cc1 | 7.3 µM |
| O=S(=O)(c1ccccc1C(F)(F)F)N1CCN(c2ncnc3sccc23)CC1 | 3.44 µM |
| Fc1ccc2[nH]c3c(N4CCN(c5ccccc5)CC4)ncnc3c2c1 | 3.78 µM |
| O=C(OC12CC3CC(CC(C3)C1)C2)c1ccc(NCc2cc(O)ccc2O)cc1 | 2.33 µM |
| NC(Cc1ccc(Cl)cc1)c1csc(NC(=O)NCC2CCCCC2)n1 (configuration not stated) | 6.58 µM |
| Cn1cc(S(=O)(=O)N2CCc3ccccc32)cc1C(=O)NC(C)(C)C | 1.25 µM |
| Cc1cccc2c(C(=O)N3CCN(c4ccccn4)CC3)cc(-c3cccc(Br)c3)nc12 | 6.48 µM |
| CC(=O)N1CCCc2cc(S(=O)(=O)N3CCCC(C(=O)N4CCN(c5cccc(Cl)c5)CC4)C3)ccc21 (configuration not stated) | 1.9 µM |
| O[C@@H]1CN(Cc2ccc(-n3cccn3)cc2)CC[C@H]1N1CCN(c2ccccc2F)CC1 | 2.13 µM |
| Cc1ccc(C)c(N2CCN(C(=O)CCS(=O)(=O)c3ccc4c(c3)NC(=O)C(C)S4)CC2)c1 (configuration not stated) | 4.47 µM |
| O=C(Nc1ccc(F)cc1)c1nc(S(=O)(=O)Cc2ccccc2)ncc1Cl | 3.38 µM |
| CSc1nnc(NC(=O)c2nc(S(=O)(=O)Cc3ccccc3)ncc2Cl)s1 | 1.35 µM |
| S=C(NCc1ccc(Cl)cc1)Nc1ccncc1 | 1.5 µM |
| CCCC(=O)NC(c1ccc(N(C)C)cc1)c1ccc2cccnc2c1O (configuration not stated) | 0.916 µM |
| CC(=O)c1c(C)[nH]c(C(=O)COc2cc(C)ccc2C(C)C)c1C | 1.25 µM |
| CC1CN(C(=O)CCc2cc(C(C)(C)C)c(O)c(C(C)(C)C)c2)CC(C)O1 (configuration not stated) | 2.56 µM |
| CCOC(=O)C1CCCN(S(=O)(=O)c2ccc(S(=O)(=O)N3CCCC3)cc2)C1 (configuration not stated) | 0.821 µM |
| Cc1nnc(NC(=O)c2nc(S(=O)(=O)Cc3ccccc3)ncc2Cl)s1 | 1.34 µM |
| Cc1ccc(Cn2c(=N)n(CC(O)COc3ccccc3)c3ccccc32)cc1 (configuration not stated) | 2.46 µM |

| SMILES | AC50 |
| --- | --- |
| CC(=O)c1ccc(NC(=O)C(C)OC(=O)/C=C/c2ccco2)cc1 (configuration not stated) | 9.12 µM |
| COc1ccccc1C(=O)Nc1nc2ccccc2[nH]1 | 0.868 µM |
| O=C(Nc1ccccc1Cl)/C(Cl)=C(\Cl)S(=O)c1ccccc1 (configuration not stated) | 0.438 µM |
| CN(c1ccccc1)c1ccc(/C=C/[N+](=O)[O-])cc1 | 5.79 µM |
| Cc1oc(=O)c(NC(=O)c2ccc(Cl)cc2)cc1C(=O)c1ccccc1 | 32.1 µM |
| COc1ccc(CNCCc2c(C)[nH]c3ccc(OC(F)(F)F)cc23)c(OC)c1 | 0.963 µM |
| CC(Sc1nc2ccccc2c(=O)n1C)C(=O)Nc1ccc2c(c1)OCCO2 (configuration not stated) | 1.94 µM |
| COc1ccccc1N/C(N)=N/c1nc(CSc2ccc(C)cc2)cc(=O)[nH]1 | 2.95 µM |
| CCC(=O)c1ccc(OCC(O)Cn2c(C)nc3ccccc32)cc1 (configuration not stated) | 2.28 µM |
| CCOC(=O)C1CCN(C(=O)c2sc3nc(C)nc(N4CCC(C)CC4)c3c2C)CC1 | 5.26 µM |
| CC(C)Cn1c(N)c(C(=O)COC(=O)CC23CC4CC(CC(C4)C2)C3)c(=O)n(C)c1=O | 1.51 µM |
| COc1ccc(CC(N)c2csc(NC(=O)c3cc(C(C)(C)C)nn3Cc3ccccc3)n2)cc1 (configuration not stated) | 9.53 µM |
| CCCC(=O)NC(c1ccc(C(C)C)cc1)c1ccc2cccnc2c1O (configuration not stated) | 0.47 µM |
| CC(C)(CNC(=O)c1ccc(Cl)c(S(=O)(=O)N2CCc3ccccc3C2)c1)N1CCOCC1 | 10.5 µM |
| Cc1ccc(NC(=O)c2ccc(Cl)c(N3C(=O)C=CC3=O)c2)cc1 | 1.6 µM |
| CC1(C)CC(=O)c2c(nc(SCC(=O)Nc3nsc(-c4ccccc4)n3)c(C#N)c2-c2ccccc2)C1 | > 70 µM (inactive) |
| COc1ccc(C(NC(C)=O)c2cc(Cl)c3cccnc3c2O)cc1OC (configuration not stated) | 3.45 µM |
| CCOc1ccc(-c2nnc(N3CCCCC3)c3ccccc23)cc1 | 14.9 µM |
| C=CCNc1nc(N2CCOCC2)c(C#N)c2c1CN(C)CC2 | > 70 µM (inactive) |
| CCN(CC)CCCNc1nc2ccccc2c2[nH]c3ccc(OC)cc3c12 | 12.3 µM |
| Cn1c(=O)n(C)c2cc([N+](=O)[O-])c(N3CCN(S(=O)(=O)c4ccc(C(C)(C)C)cc4)CC3)cc21 | 3.53 µM |

— PubChem BioAssay AID743417 (Broad Institute, 2014)
